In ChEMBL document CHEMBL1201862, “PubChem BioAssay data set” (2004):
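Five compound concentrations were applied to cells in 96-well plates for 48 hours; endpoints were derived by simple linear interpolation of the resulting dose-response curve. GI50 is the concentration that inhibits growth by half.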 Activity calls are given as the source filed them. No stated cut-off is given here; in the data, active = GI50 up to about 1.1 µM and inactive = higher.

Key:
Assay in all cases: inhibition of tumour cell growth, NCI panel, 48 h
OVCAR-3 = system: OVCAR-3
HL-60 = system: HL-60
SR = system: SR
CAKI-1 = system: CAKI-1
OVCAR-4 = system: OVCAR-4
UO-31 = system: UO-31
SNB-19 = system: SNB-19
U-251 = system: U-251
SW-620 = system: SW-620
NCI-H522 = system: NCI-H522
SF-539 = system: SF-539
UACC-257 = system: UACC-257
HOP-62 = system: HOP-62
HOP-92 = system: HOP-92
COLO 205 = system: COLO 205
OVCAR-8 = system: OVCAR-8
OVCAR-5 = system: OVCAR-5
A498 = system: A498

| Structure (SMILES) | GI50 (OVCAR-3) | GI50 (HL-60) | GI50 (SR) | GI50 (CAKI-1) | GI50 (OVCAR-4) | GI50 (UO-31) | GI50 (SNB-19) | GI50 (U-251) | GI50 (SW-620) | GI50 (NCI-H522) | GI50 (SF-539) | GI50 (UACC-257) | GI50 (HOP-62) | GI50 (HOP-92) | GI50 (COLO 205) | GI50 (OVCAR-8) | GI50 (OVCAR-5) | GI50 (A498) |
| --- | --- | --- | --- | --- | --- | --- | --- | --- | --- | --- | --- | --- | --- | --- | --- | --- | --- | --- |
| CC(=O)O[C@@]1(C)[C@@H](C)C(=O)O[C@@H]2CCN3CC=C(COC(=O)[C@]1(C)O)[C@H]23 | > 100 µM (inactive) | > 100 µM (inactive) | > 100 µM (inactive) | > 100 µM (inactive) | > 100 µM (inactive) | > 100 µM (inactive) | > 100 µM (inactive) | > 100 µM (inactive) | > 100 µM (inactive) | > 100 µM (inactive) | > 100 µM (inactive) | > 100 µM (inactive) | > 100 µM (inactive) | > 100 µM (inactive) | > 100 µM (inactive) | > 100 µM (inactive) | > 100 µM (inactive) | – |
| N#CC1(Cc2ccccc2[N+](=O)[O-])c2ccccc2C2C(N1C(=O)c1ccccc1)C2(Cl)Cl (stereo not given) | > 100 µM (inactive) | – | – | > 100 µM (inactive) | 13.2 µM (inactive) | > 100 µM (inactive) | > 100 µM (inactive) | > 100 µM (inactive) | > 100 µM (inactive) | > 100 µM (inactive) | > 100 µM (inactive) | > 100 µM (inactive) | – | > 100 µM (inactive) | > 100 µM (inactive) | > 100 µM (inactive) | > 100 µM (inactive) | 78 µM (inactive) |
| CCc1ccccc1NC(=O)/C(=N/O)C(C)=O | > 100 µM (inactive) | > 100 µM (inactive) | – | > 100 µM (inactive) | > 100 µM (inactive) | > 100 µM (inactive) | > 100 µM (inactive) | > 100 µM (inactive) | > 100 µM (inactive) | > 100 µM (inactive) | > 100 µM (inactive) | > 100 µM (inactive) | > 100 µM (inactive) | – | > 100 µM (inactive) | > 100 µM (inactive) | – | > 100 µM (inactive) |
| COC(=O)[C@]12CCC(C)[C@H](C)[C@H]1C1=CCC3[C@@]4(C)CC[C@H](OC(C)=O)C(C)(C)C4CC[C@@]3(C)C1(C)C(O)C2 (stereo not given in full) | > 100 µM (inactive) | – | > 100 µM (inactive) | > 100 µM (inactive) | > 100 µM (inactive) | > 100 µM (inactive) | > 100 µM (inactive) | > 100 µM (inactive) | > 100 µM (inactive) | > 100 µM (inactive) | > 100 µM (inactive) | > 100 µM (inactive) | > 100 µM (inactive) | > 100 µM (inactive) | > 100 µM (inactive) | > 100 µM (inactive) | > 100 µM (inactive) | > 100 µM (inactive) |
| COc1cc(CCCC(O)COc2cccc3c2C2(O)CCCCCC32)cc(OC)c1 (stereo not given) | – | 22.2 µM (inactive) | – | 20.8 µM (inactive) | 18.2 µM (inactive) | 15.4 µM (inactive) | 17.8 µM (inactive) | 18.9 µM (inactive) | 17.2 µM (inactive) | 24.9 µM (inactive) | 13.4 µM (inactive) | 15.6 µM (inactive) | 15 µM (inactive) | 4.75 µM (inactive) | 2.53 µM (inactive) | 19.1 µM (inactive) | 15.4 µM (inactive) | 19.9 µM (inactive) |
| Nc1c2ccccc2nc2c(C(=O)Nc3ccc(S(N)(=O)=O)cc3)cccc12 | 33.7 µM (inactive) | – | – | > 100 µM (inactive) | > 100 µM (inactive) | 46.3 µM (inactive) | 92.3 µM (inactive) | 49 µM (inactive) | 66.2 µM (inactive) | 21.8 µM (inactive) | 13.2 µM (inactive) | > 100 µM (inactive) | > 100 µM (inactive) | – | > 100 µM (inactive) | 57.9 µM (inactive) | > 100 µM (inactive) | > 100 µM (inactive) |
| COc1cccc(NC(=O)CC(=O)N2NC(C)C(/N=N/c3cccc(C(=O)O)c3)C2=O)c1 (stereo not given) | > 100 µM (inactive) | – | > 100 µM (inactive) | > 100 µM (inactive) | > 100 µM (inactive) | > 100 µM (inactive) | > 100 µM (inactive) | > 100 µM (inactive) | > 100 µM (inactive) | > 100 µM (inactive) | > 100 µM (inactive) | > 100 µM (inactive) | > 100 µM (inactive) | > 100 µM (inactive) | > 100 µM (inactive) | > 100 µM (inactive) | > 100 µM (inactive) | > 100 µM (inactive) |
| CN(CN1C(=O)C2Cc3ccccc3CN2C1=O)c1ccccn1 (stereo not given) | > 100 µM (inactive) | > 100 µM (inactive) | > 100 µM (inactive) | > 100 µM (inactive) | > 100 µM (inactive) | > 100 µM (inactive) | > 100 µM (inactive) | > 100 µM (inactive) | > 100 µM (inactive) | > 100 µM (inactive) | > 100 µM (inactive) | – | > 100 µM (inactive) | – | > 100 µM (inactive) | > 100 µM (inactive) | > 100 µM (inactive) | > 100 µM (inactive) |
| Cc1cccc(-c2nnc3s/c(=C\c4ccc5c(c4)OCO5)c(=O)n23)c1 | > 100 µM (inactive) | > 100 µM (inactive) | – | > 100 µM (inactive) | > 100 µM (inactive) | > 100 µM (inactive) | > 100 µM (inactive) | > 100 µM (inactive) | > 100 µM (inactive) | > 100 µM (inactive) | > 100 µM (inactive) | 29.8 µM (inactive) | > 100 µM (inactive) | > 100 µM (inactive) | > 100 µM (inactive) | > 100 µM (inactive) | > 100 µM (inactive) | > 100 µM (inactive) |
| Cc1nc2sccn2c1C(=O)NC(=O)Nc1ccc(Cl)cc1 | 60.3 µM (inactive) | > 100 µM (inactive) | – | > 100 µM (inactive) | > 100 µM (inactive) | 59.2 µM (inactive) | 42.2 µM (inactive) | 50.5 µM (inactive) | > 100 µM (inactive) | 57 µM (inactive) | 41.2 µM (inactive) | > 100 µM (inactive) | 41.3 µM (inactive) | 31.2 µM (inactive) | > 100 µM (inactive) | > 100 µM (inactive) | > 100 µM (inactive) | > 100 µM (inactive) |
| CC1CCCP(=O)(c2ccccc2)CCC1 (stereo not given) | > 100 µM (inactive) | > 100 µM (inactive) | – | > 100 µM (inactive) | > 100 µM (inactive) | > 100 µM (inactive) | > 100 µM (inactive) | > 100 µM (inactive) | > 100 µM (inactive) | – | > 100 µM (inactive) | > 100 µM (inactive) | > 100 µM (inactive) | – | > 100 µM (inactive) | > 100 µM (inactive) | > 100 µM (inactive) | > 100 µM (inactive) |
| COc1ccc(/C=C(/C(=O)O)c2cc(OC)c(OC)c(OC)c2)cc1 | 23.7 µM (inactive) | – | 43.3 µM (inactive) | 44.9 µM (inactive) | 41.4 µM (inactive) | 39.5 µM (inactive) | 59.4 µM (inactive) | 35.2 µM (inactive) | 61 µM (inactive) | 16.8 µM (inactive) | 19.3 µM (inactive) | 31.5 µM (inactive) | 35 µM (inactive) | > 100 µM (inactive) | 33.3 µM (inactive) | 63.5 µM (inactive) | > 100 µM (inactive) | 52.4 µM (inactive) |
| CC(=O)OCC1OC(OC2C(COC(C)=O)OC(Sc3ccccc3C)C(OC(C)=O)C2OC(C)=O)C(OC(C)=O)C(OC(C)=O)C1OC(C)=O (stereo not given) | – | – | > 100 µM (inactive) | > 100 µM (inactive) | > 100 µM (inactive) | > 100 µM (inactive) | > 100 µM (inactive) | > 100 µM (inactive) | > 100 µM (inactive) | > 100 µM (inactive) | > 100 µM (inactive) | > 100 µM (inactive) | > 100 µM (inactive) | 55 µM (inactive) | > 100 µM (inactive) | – | > 100 µM (inactive) | > 100 µM (inactive) |
| N=C(c1ccccc1)N(c1ccccc1)c1ccccc1 | – | 20.8 µM (inactive) | 30.7 µM (inactive) | > 100 µM (inactive) | 88.9 µM (inactive) | 68.5 µM (inactive) | > 100 µM (inactive) | > 100 µM (inactive) | > 100 µM (inactive) | 73.3 µM (inactive) | 74.1 µM (inactive) | > 100 µM (inactive) | > 100 µM (inactive) | < 0.01 µM (active) | 19.2 µM (inactive) | > 100 µM (inactive) | 76.7 µM (inactive) | – |
| O=C(Cc1nc2ccccc2s1)C(=O)Nc1cccc(Cl)c1 | > 100 µM (inactive) | > 100 µM (inactive) | – | > 100 µM (inactive) | > 100 µM (inactive) | > 100 µM (inactive) | > 100 µM (inactive) | > 100 µM (inactive) | > 100 µM (inactive) | > 100 µM (inactive) | > 100 µM (inactive) | > 100 µM (inactive) | > 100 µM (inactive) | > 100 µM (inactive) | > 100 µM (inactive) | > 100 µM (inactive) | > 100 µM (inactive) | > 100 µM (inactive) |
| CN1C(=O)C(C)(C)C2(SC(C)(C)C2(C)C)N(C)C1=S (stereo not given) | > 100 µM (inactive) | 96.2 µM (inactive) | 55.3 µM (inactive) | 8.49 µM (inactive) | > 100 µM (inactive) | > 100 µM (inactive) | > 100 µM (inactive) | > 100 µM (inactive) | > 100 µM (inactive) | 86.7 µM (inactive) | > 100 µM (inactive) | > 100 µM (inactive) | > 100 µM (inactive) | 27.8 µM (inactive) | > 100 µM (inactive) | > 100 µM (inactive) | > 100 µM (inactive) | – |
| O=CC1=CCCC2(C1)OCCO2 | > 100 µM (inactive) | > 100 µM (inactive) | – | > 100 µM (inactive) | > 100 µM (inactive) | > 100 µM (inactive) | > 100 µM (inactive) | > 100 µM (inactive) | > 100 µM (inactive) | > 100 µM (inactive) | > 100 µM (inactive) | > 100 µM (inactive) | > 100 µM (inactive) | > 100 µM (inactive) | > 100 µM (inactive) | > 100 µM (inactive) | – | > 100 µM (inactive) |
